Values after ≈ are worked out from the molar mass of the structure shown. “Also recorded” adds a separate entry of the source. Like-named read-outs stand apart in the source and are kept apart here. One block for each compound: values may come before it.
Key:
[1] = tested on: MRSA ATCC 700699 (NRS1, VISA); assay: MIC/MBC broth microdilution, NRS1 (ATCC 700699); type: cell-based; conditions: Staphylococcus aureus
Procedure: (§1) Determination of minimum inhibitory concentration (MIC). The MICs of the lead thiazole compound (compound 1a) and nine derivatives tested against all 18 MRSA strains were determined, in triplicate samples, using the broth microdilution method in accordance with the recommendations contained in the CLSI guidelines.

[2] = tested on: VISA HIP07256 (NRS19); assay: MIC/MBC broth microdilution, NRS19 (VISA HIP07256); type: cell-based; conditions: Staphylococcus aureus
Procedure: as §1

[3] = tested on: VISA LIM 3 (NRS37); assay: MIC/MBC broth microdilution, NRS37 (VISA LIM 3); type: cell-based; conditions: Staphylococcus aureus
Procedure: as §1

[4] = tested on: NRS119; assay: MIC/MBC broth microdilution, NRS119; type: cell-based; conditions: Staphylococcus aureus
Procedure: as §1

[5] = tested on: MRSA USA400 (NRS123); assay: MIC/MBC broth microdilution, NRS123 (USA400); type: cell-based; conditions: Staphylococcus aureus
Procedure: as §1

[6] = tested on: MRSA USA100; assay: MIC broth microdilution, MRSA USA100; type: cell-based; conditions: Staphylococcus aureus; Table 2; MRSA USA100; read-out: Minimum Inhibitory Concentration
Procedure: as §1

[7] = tested on: MRSA USA200; assay: MIC broth microdilution, MRSA USA200; type: cell-based; conditions: Staphylococcus aureus; Table 2; MRSA USA200; read-out: Minimum Inhibitory Concentration
Procedure: as §1

[8] = tested on: MRSA NRS384 (USA300); assay: MIC/MBC broth microdilution, NRS384 (USA300); type: cell-based; conditions: Staphylococcus aureus
Procedure: as §1

[9] = tested on: MRSA USA500 (NRS385); assay: MIC/MBC broth microdilution, NRS385 (USA500); type: cell-based; conditions: Staphylococcus aureus
Procedure: as §1

[10] = tested on: MRSA USA800; assay: MIC broth microdilution, MRSA USA800; type: cell-based; conditions: Staphylococcus aureus, Table 2, read-out: Minimum Inhibitory Concentration
Procedure: as §1

[11] = tested on: murine macrophage cells (J774.A1); assay: In vitro cytotoxicity analysis, MTS assay; type: cell-based; conditions: 16 μM, 24 hours
Procedure: In vitro cytotoxicity analysis: Compounds were assayed at concentrations of 2 μM, 4 μM, 8 μM, and 16 μM against a macrophage cell line (J774.A1) to determine the potential toxic effect in vitro. Murine macrophage cells were cultured in Dulbeco's Modified Eagle Medium (Sigma-Aldrich, St. Louis, Mo., USA) with 10% Fetal Bovine Serum (USA Scientific, Inc.) at 37° C. with 5% CO2. Controls received DMSO alone at a concentration equal to that in drug-treated cell samples. The cells were incubated with the compounds in a 96-Well Plate at 37° C. and 5.0% CO2 for 24 hours prior to addition of the assay reagent MTS 3-(4,5-dimethylthiazol-2-yl)-5-(3-carboxymethoxyphenyl)-2-(4-sulfophenyl)-2H-tetrazolium) (Promega, Madison, Wis., USA). The reagent measures the succinate dehydrogenase mitochondrial activity as an indicator of cell viability and proliferation. Corrected absorbance readings (actual absorbance readings for each treatment subtracted from background absorbance) were taken using a kinetic ELISA microplate reader (Molecular Devices, Sunnyvale, Calif., USA). The quantity of viable cells after treatment with each compound was expressed as a percentage of the control, DMSO.

[12] = tested on: NRS107; assay: MIC/MBC broth microdilution, NRS107; type: cell-based; conditions: Staphylococcus aureus
Procedure: as §1

[13] = tested on: NRS194; assay: MIC/MBC broth microdilution, NRS194; type: cell-based; conditions: Staphylococcus aureus
Procedure: as §1

[14] = tested on: VRSA (VRS10); assay: MIC/MBC broth microdilution, VRSA (VRS10); type: cell-based, Staphylococcus aureus; conditions: Staphylococcus aureus; for MIC: read-out: Minimum Inhibitory Concentration
Procedure: as §1

[15] = tested on: 18 different strains of MRSA and VRSA; assay: MIC broth microdilution, panel of 18 MRSA and VRSA strains (summary statements); type: cell-based, Staphylococcus aureus; conditions: relative to lead compound 1a; number of strains as stated in the sentence
Procedure: as §1

[16] = tested on: MRSA ATCC 43300; assay: MIC/MBC broth microdilution, MRSA ATCC 43300; type: cell-based, Staphylococcus aureus; conditions: Staphylococcus aureus
Procedure: as §1

[17] = Table 2, MRSA ATCC 700699, read-out: Minimum Inhibitory Concentration
[18] = Table 2, VISA HIP07256, read-out: Minimum Inhibitory Concentration
[19] = Table 2, MRSA USA300, read-out: Minimum Inhibitory Concentration
[20] = Table 2, MRSA USA500, read-out: Minimum Inhibitory Concentration
[21] = Table 2, read-out: Minimum Inhibitory Concentration

MIC [1, 17]: 2.3 µg/mL
MIC [2, 18]: 2.3 µg/mL
MIC ([3]; Table 2, VISA LIM 3, read-out: Minimum Inhibitory Concentration): 1.2 µg/mL
MIC ([4]; Table 2, NRS119, read-out: Minimum Inhibitory Concentration): 2.3 µg/mL
MIC ([5]; Table 2, MRSA USA400, read-out: Minimum Inhibitory Concentration): 1.2 µg/mL
MIC [6]: 1.2 µg/mL (≈ 3.8 µM)
MIC [7]: 2.3 µg/mL (≈ 7.29 µM)
MIC [8, 19]: 1.2 µg/mL
MIC [9, 20]: 2.3 µg/mL
MIC [10]: 2.3 µg/mL (≈ 7.29 µM)
SMILES: CCCc1ccc(-c2nc(C)c(/C(C)=N/NC(=N)N)s2)cc1 [Compound 1c, 2-{1-[4-Methyl-2-(4-propylphenyl)thiazol-5-yl]ethylidene}hydrazinecarboximidamide]
toxicity toward murine macrophage cells [11]: exhibited toxicity; also recorded: toxic

MIC [1, 17]: 1.9 µg/mL
MIC [2, 18]: 1.9 µg/mL
MIC [12, 21]: 1 µg/mL
MIC [13, 21]: 1.9 µg/mL
MIC [6]: 1 µg/mL (≈ 3.04 µM)
MIC [7]: 1.9 µg/mL (≈ 5.77 µM)
MIC [8, 19]: 1 µg/mL
MIC [9, 20]: 1 µg/mL
MIC [10]: 1 µg/mL (≈ 3.04 µM)
MIC ([14]; Table 2, VRSA): 1 µg/mL
improvement in the MIC value relative to the lead compound [15]: nearly two- to five-fold enhancement
SMILES: C/C(=N\NC(=N)N)c1sc(-c2ccc(C(C)(C)C)cc2)nc1C [Compound 1g, 2-{1-[2-(4-(tert-Butyl)phenyl)-4-methylthiazol-5-yl]ethylidene}hydrazinecarboximid-amide]
toxicity toward murine macrophage cells [11]: exhibited toxicity

MIC ([16]; Table 6, MRSA ATCC 43300, 128 μM down to 1.0 μM, 20 hours, read-out: MIC): 8 µM (≈ 3.34 µg/mL)
MIC ([16]; Table 7, MRSA (ATCC 43300), read-out: Minimum Inhibitory Concentration): 8 µM (≈ 3.34 µg/mL)
MIC ([16]; Table 8, ATCC 43300, read-out: MIC): 8 µM (≈ 3.34 µg/mL)
MIC ([1]; Table 7, VISA (NRS1), read-out: Minimum Inhibitory Concentration): 4 µM
MIC ([1]; Table 8, NRS1 (VISA), triplicates, 20 hours, read-out: MIC): 8 µM
MIC ([2]; Table 8, NRS19 (VISA), read-out: MIC): 8 µM
MIC ([3]; Table 8, NRS37 (VISA), read-out: MIC): 8 µM
MIC ([12]; Table 8, read-out: MIC): 8 µM
MIC ([4]; NRS 119 / VISA, Table 7, VISA (NRS119), read-out: Minimum Inhibitory Concentration): 16 µM
MIC ([4]; Table 8, NRS119, read-out: MIC): 16 µM
MIC ([5]; Table 8, NRS123, read-out: MIC): 16 µM
MIC ([13]; Table 8, read-out: MIC): 16 µM
MIC ([8]; Table 8, NRS384, read-out: MIC): 16 µM
MIC ([9]; Table 8, NRS385, read-out: MIC): 8 µM
MIC ([14]; Table 7, VRSA (VRS10)): 4 µM
SMILES: C/C(=N/NC(=N)N)c1sc(-c2ccc(-c3ccc(C(F)(F)F)cc3)cc2)nc1C [Compound M13]
MBC ([16]; Table 6, MRSA ATCC 43300, plating on TSA, 20 hour incubation, read-out: MBC): 16 µM (≈ 6.68 µg/mL)
MBC ([16]; Table 7, MRSA (ATCC 43300), read-out: Minimum Bactericidal Concentration): 16 µM (≈ 6.68 µg/mL)
MBC ([16]; Table 8, ATCC 43300, read-out: MBC): 8 µM (≈ 3.34 µg/mL)
MBC ([1]; Table 7, VISA (NRS1), read-out: Minimum Bactericidal Concentration): 8 µM (≈ 3.34 µg/mL)
MBC ([1]; Table 8, NRS1 (VISA), read-out: MBC): 8 µM (≈ 3.34 µg/mL)
MBC ([2]; Table 8, NRS19 (VISA), read-out: MBC): 8 µM (≈ 3.34 µg/mL)
MBC ([3]; Table 8, NRS37 (VISA), read-out: MBC): 8 µM (≈ 3.34 µg/mL)
MBC ([12]; Table 8, read-out: MBC): 16 µM (≈ 6.68 µg/mL)
MBC ([4]; NRS 119 / VISA, Table 7, VISA (NRS119), read-out: Minimum Bactericidal Concentration): 32 µM (≈ 13.4 µg/mL)
MBC ([4]; Table 8, NRS119, read-out: MBC): 16 µM (≈ 6.68 µg/mL)
MBC ([5]; Table 8, NRS123, read-out: MBC): 32 µM (≈ 13.4 µg/mL)
MBC ([13]; Table 8, read-out: MBC): 32 µM (≈ 13.4 µg/mL)
MBC ([8]; Table 8, NRS384, read-out: MBC): 16 µM (≈ 6.68 µg/mL)
MBC ([9]; Table 8, NRS385, read-out: MBC): 8 µM (≈ 3.34 µg/mL)
MBC ([14]; Table 7, VRSA (VRS10), read-out: Minimum Bactericidal Concentration): 16 µM (≈ 6.68 µg/mL)
